Reference: article PMC8497156, “Complexed Crystal Structure of Saccharomyces cerevisiae Dihydroorotase with Inhibitor 5-Fluoroorotate Reveals a New Binding Mode” (Bioinorganic Chemistry and Applications, 2021)

Assays:
Format in all cases: binding
[1] = molecular target: T1, dihydroorotase (ScDHOase-R18A) (Saccharomyces cerevisiae, UniProt P20051, R18A); assay: intrinsic fluorescence quenching titration
T1 construct: gene URA4

[2] = molecular target: T2, dihydroorotase (ScDHOase) (Saccharomyces cerevisiae, UniProt P20051); assay: Kd by intrinsic fluorescence quenching
T2 construct: gene URA4
T2 sequence (P20051 1-364): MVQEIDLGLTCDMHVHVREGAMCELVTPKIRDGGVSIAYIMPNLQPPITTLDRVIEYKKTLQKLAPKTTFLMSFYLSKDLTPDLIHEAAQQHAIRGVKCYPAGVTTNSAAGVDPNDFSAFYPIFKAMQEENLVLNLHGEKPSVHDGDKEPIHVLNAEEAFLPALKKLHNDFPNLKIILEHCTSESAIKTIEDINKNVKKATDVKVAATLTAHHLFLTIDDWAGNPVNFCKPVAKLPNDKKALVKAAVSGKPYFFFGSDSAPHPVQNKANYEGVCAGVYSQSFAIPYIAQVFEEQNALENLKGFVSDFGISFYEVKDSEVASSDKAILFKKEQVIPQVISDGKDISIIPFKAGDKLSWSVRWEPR

[3] = molecular target: T3, dihydroorotase (ScDHOase-T106A) (Saccharomyces cerevisiae, UniProt P20051, T106A); assay: intrinsic fluorescence quenching titration
T3 construct: gene URA4
T3 sequence (P20051 whole entry T106A): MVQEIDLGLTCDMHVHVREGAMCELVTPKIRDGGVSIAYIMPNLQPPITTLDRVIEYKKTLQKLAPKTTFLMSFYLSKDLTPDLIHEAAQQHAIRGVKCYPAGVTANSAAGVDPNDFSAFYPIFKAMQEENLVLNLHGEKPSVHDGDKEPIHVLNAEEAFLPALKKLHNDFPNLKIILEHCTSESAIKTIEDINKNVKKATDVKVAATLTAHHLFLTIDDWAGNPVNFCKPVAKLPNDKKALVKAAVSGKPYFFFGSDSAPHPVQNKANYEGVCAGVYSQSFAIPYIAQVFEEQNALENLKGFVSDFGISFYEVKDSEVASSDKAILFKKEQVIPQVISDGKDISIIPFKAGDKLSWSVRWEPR

T1 sequence (P20051 whole entry R18A): as the sequence (P20051 whole entry T106A) above, with R18A, A106T counted along it

O=C(O)c1[nH]c(=O)[nH]c(=O)c1F [5-FOA, 5-fluoroorotate]
Kd [1]: 144 ± 2.1 µM
Kd [2]: 83.8 ± 1.5 µM
Kd [3]: 115 ± 3.7 µM
